Source: the NIST ThermoML archive (doi:10.1021/je049818g)

Settings: Liquid, Hot wire method

COC [dimethyl ether]
Settings	thermal conductivity [W/m/K]
229.67 K	0.1832
244.98 K	0.1762
254.6 K	0.1701
271.55 K	0.1605
281.76 K	0.1537
291.33 K	0.1485

CCCCOCCO [2-butoxyethan-1-ol]
Settings	thermal conductivity [W/m/K]
283.96 K	0.1381
293.67 K	0.1365
303.56 K	0.135
314.25 K	0.1333
323.88 K	0.1319
333.98 K	0.1305
344.05 K	0.129
354.63 K	0.1272
363.59 K	0.1258
373.84 K	0.1241

Cc1ccccc1 [toluene]
Settings	thermal conductivity [W/m/K]
234.6 K	0.1477
254.58 K	0.1434
273.17 K	0.1374
293.23 K	0.1334
314.68 K	0.1264
334.99 K	0.1211
354.89 K	0.1136
373.92 K	0.1105

CCC(C)=O [butanone]
Settings	thermal conductivity [W/m/K]
284.48 K	0.1501
294.42 K	0.1481
305.02 K	0.1459
314.26 K	0.1435
323.96 K	0.1414
334.71 K	0.139
344.54 K	0.1362
354.33 K	0.1334
364.46 K	0.1308
374.56 K	0.1284
